Measured values from patent US20130317027A1, “COMPOUNDS AND THERAPEUTIC USES THEREOF” (Myrexis, Inc, priority 2010, published 2013).
Like-named read-outs stand apart in the source and are kept apart here.

Tests used:
[1] = test system: MDA-MB-436 cells; assay: Synergy between Nampt inhibitors and the PARP inhibitor olaparib in BRCA1-deficient cells; assay type: cell-based; conditions: loss of BRCA1 function
Method: Experiments were conducted in HCT116 cells.
This was not fully unexpected, as PARP inhibitors are relatively benign to cells (like HCT116 cells) that have a functional homologous recombination (HR) system to repair double stranded DNA damage (Ashworth A. Journal of Clinical Oncology 26(22):3785-90 (2008)). In fact, the model (FIG. 1A) predicts that inhibiting an enzyme, such as PARP, that consumes NAD^+ would protect HR-proficient cells from Nampt inhibition. However, in cells that have lost the function of BRCA tumor suppressors, HR function is compromised, and these cells are killed by PARP inhibitors (Ashworth A. (2008) Journal of Clinical Oncology 26(22):3785-90). Thus, it was hypothesized that PARP inhibitors, while being antagonistic with Nampt inhibitors in most cells, would be synergistic in cells with BRCA mutations that render the cells HR-deficient (FIG. 1B). Indeed, in MDA-MB-436 cells, which have a loss of BRCA1 function, Nampt inhibitors (a known Nampt inhibitor, Exemplary Compound A and Exemplary Compound I, both Exemplary Compounds identified hereinafter) and the PARP inhibitor olaparib synergized in causing cell death. […] Of further significance to these findings, it is becoming clear that other routes of HR deficiency in oncogenesis (other than BRCA sequence mutation) could also lead to sensitivity to PARP inhibition plus Nampt inhibitor combination therapy. […]

[2] = test system: Cancer cell lines (SCLC, glioma, colon cancer and others)
Method: Experiments were conducted in HCT116 cells. […] For compound combination analyses, the MacSynergy™ II protocol and program were utilized, following the recommendations of the developers (Prichard and Shipman, 1990). Prior to combinations of compounds, dose curves of cells treated with a single compound were generated to define relevant compound doses to use in the combination analysis. Typically, relevant doses were those found in the inflection portion of a sigmoidal dose-response curve. Utilizing these optimized conditions, cells were dosed with Nampt inhibitor plus the test compound at a variety of concentrations of each, and viability was assessed using CellTiter-Glo. Data was processed using the MacSynergy™ II algorithm, which subtracted from actual data a prediction of compound additivity. Thresholds for meaningful synergy were defined based upon the recommendations of the developers (Prichard and Shipman, 1990).
Cancer cell lines used in these studies represented cancer types found to be sensitive to Nampt inhibition [e.g. non-Hodgkins lymphoma, multiple myeloma, glioma, non-small cell lung carcinoma (NSCLC), small cell lung carcinoma (SCLC), ovarian cancer and colorectal cancer].

[3] = test system: cancer cell lines; assay: Cytotoxicity in a wide variety of cancer cell types (TC50, CellTiter-Glo, 72 or 96 hours); conditions: read-out: TC50
Method: Exponentially growing cells were plated in fresh growth media in a 96-well black, flat, clear-bottomed polystyrene microtiter plate (Packard View Plate 6005182). Twenty-four hours later, compounds were added from serial dilutions prepared in DMSO from 50 mM DMSO stock solutions. Each concentration of inhibitor was tested in duplicate at a final DMSO concentration of 0.4%. After 72 or 96 hours incubation, cell viability was quantified by measuring intracellular ATP levels using CellTiter-Glo (Promega). Luminescence data was collected on a TopCount NXT plate reader (PerkinElmer). Experimental values were normalized to solvent controls and plotted versus compound concentration to determine the concentration required for a 50% reduction in cell viability.

Structure (SMILES): O=C(NCc1cccnc1)Nc1ccc(COc2ccccc2-c2ccccc2)cc1 [Exemplary Compound A]
- drug interaction with the PARP inhibitor olaparib in causing cell death [1]: synergized
- cytotoxicity in combination with 4HC [2]: Synergistic cytotoxicity
- cytotoxicity in combination with 5-FU [2]: Synergistic cytotoxicity
- cytotoxicity in combination with temozolomide [2]: Synergistic cytotoxicity
- CC50 ([3]; A172 cells, glioma, 3 DAY): 1.1 nM
- CC50 ([3]; COLO205 cells, colon, 3 DAY): 0.5 nM
- CC50 ([3]; COLO205 cells, colon, 7 DAY): 0.3 nM
- CC50 ([3]; DB cells, lymphoma, 3 DAY): 3.5 nM
- CC50 ([3]; DMS-114 cells, SCLC, 3 DAY): 0.16 nM
- CC50 ([3]; DU145 cells, prostate, 3 DAY): 3.9 nM
- CC50 ([3]; DU145 cells, prostate, 7 DAY): 2.7 nM
- CC50 ([3]; DU4475 cells, breast, 3 DAY): 0.1 nM
- CC50 ([3]; DU4475 cells, breast, 7 DAY): 0.1 nM
- CC50 ([3]; HCC827 cells, NSCLC, 3 DAY): 8 nM
- CC50 ([3]; HCC827 cells, NSCLC, 7 DAY): 1.5 nM
- CC50 ([3]; HCT116 cells, colon, 3 DAY): 0.6 nM
- CC50 ([3]; HCT116 cells, colon, 7 DAY): 0.4 nM
- CC50 ([3]; HCT-15 cells, colon, 3 DAY): 0.7 nM
- CC50 ([3]; HCT-15 cells, colon, 7 DAY): 1 nM
- CC50 ([3]; HOP92 cells, NSCLC, 3 DAY): 17 nM
- CC50 ([3]; HOP92 cells, NSCLC, 7 DAY): 4.3 nM
- CC50 ([3]; HT29 cells, colon, 3 DAY): 1.4 nM
- CC50 ([3]; HT29 cells, colon, 7 DAY): 1.1 nM
- CC50 ([3]; HT1080 cells, sarcoma, 3 DAY): 1 nM
- CC50 ([3]; HT1080 cells, sarcoma, 7 DAY): 0.6 nM
- CC50 ([3]; KM12 cells, colon, 3 DAY): 0.9 nM
- CC50 ([3]; KM12 cells, colon, 7 DAY): 0.4 nM
- CC50 ([3]; MDA-MB-231 cells, breast, 3 DAY): 10 nM
- CC50 ([3]; MDA-MB-231 cells, breast, 7 DAY): 7.5 nM
- CC50 ([3]; MIA PaCa-2 cells, pancreatic, 3 DAY): 1.8 nM
- CC50 ([3]; MIA PaCa-2 cells, pancreatic, 7 DAY): 0.4 nM
- CC50 ([3]; NCI-H69 cells, SCLC, 3 DAY): 1 nM
- CC50 ([3]; NCI-H82 cells, SCLC, 3 DAY): 1.1 nM
- CC50 ([3]; NCI-H460 cells, NSCLC, 3 DAY): 15.4 nM
- CC50 ([3]; NCI-H522 cells, NSCLC, 3 DAY): 1 nM
- CC50 ([3]; NCI-H522 cells, NSCLC, 7 DAY): 0.4 nM
- CC50 ([3]; NCI-H929 cells, myeloma, 3 DAY): 2.5 nM
- CC50 ([3]; NCI-H1650 cells, NSCLC, 3 DAY): 2.5 nM
- CC50 ([3]; NCI-N87 cells, gastric, 3 DAY): 0.3 nM
- CC50 ([3]; NCI-N87 cells, gastric, 7 DAY): 0.2 nM
- CC50 ([3]; OCI-Ly19 cells, lymphoma, 3 DAY): 1.2 nM
- CC50 ([3]; OPM-2 cells, myeloma, 3 DAY): 1.5 nM
- CC50 ([3]; OVCAR3 cells, ovarian, 3 DAY): 1.1 nM
- CC50 ([3]; OVCAR3 cells, ovarian, 7 DAY): 0.4 nM
- CC50 ([3]; SF-295 cells, glioma, 3 DAY): 1.5 nM
- CC50 ([3]; SU-DHL-4 cells, lymphoma, 3 DAY): 1.5 nM
- CC50 ([3]; SU-DHL-5 cells, lymphoma, 3 DAY): 0.9 nM
- CC50 ([3]; U-87MG cells, glioma, 3 DAY): 23 nM
